Reference: ChEMBL document CHEMBL4840352 (J Med Chem, 2021)
Calls of active or inactive are those of the source. The rule behind the calls is not given here.

What was measured:
[1] = target: Maternal embryonic leucine zipper kinase (Homo sapiens) (UniProt Q14680); test: Inhibition of MELK (unknown origin) at 1000 nM relative to control
[2] = target: Serine/threonine-protein kinase Chk1 (Homo sapiens) (UniProt O14757); test: Inhibition of CHK1 (unknown origin) at 1000 nM relative to control
[3] = target: Serine/threonine-protein kinase MARK1 (Homo sapiens) (UniProt Q9P0L2); test: Inhibition of MARK1 (unknown origin) at 1000 nM relative to control
[4] = target: ALK tyrosine kinase receptor (Homo sapiens) (UniProt Q9UM73); test: Inhibition of ALK (unknown origin) at 1000 nM relative to control
[5] = target: Mitogen-activated protein kinase 1 (Homo sapiens) (UniProt P28482); test: Inhibition of MAPK2 (unknown origin) at 1000 nM relative to control
[6] = target: Mitogen-activated protein kinase 8 (Homo sapiens) (UniProt P45983); test: Inhibition of JNK1 (unknown origin) at 1000 nM relative to control
[7] = target: Mitogen-activated protein kinase 1 (Homo sapiens) (UniProt P28482); test: Inhibition of ERK2 (unknown origin) at 1000 nM relative to control
[8] = target: Serine/threonine-protein kinase Chk2 (Homo sapiens) (UniProt O96017); test: Inhibition of CHK2 (unknown origin) at 1000 nM relative to control
[9] = target: Mitogen-activated protein kinase 3 (Homo sapiens) (UniProt P27361); test: Inhibition of ERK1 (unknown origin) at 1000 nM relative to control
[10] = target: Mitogen-activated protein kinase kinase kinase 14 (Homo sapiens) (UniProt Q99558); test: Inhibition of NIK (unknown origin) at 1000 nM relative to control
[11] = target: Casein kinase I isoform alpha-like (Homo sapiens) (UniProt Q8N752); test: Inhibition of CK1A1 (unknown origin) at 1000 nM relative to control
MOLM-13 [12] = test: Induction of apoptosis in human MOLM-13 cells after 48 hrs by Annexin-V/PI staining based flow cytometry; assay type: functional, cell-based; settings: dose 1.25-10 nM
MV4-11 [13] = test: Induction of apoptosis in human MV4-11 cells after 48 hrs by Annexin-V/PI staining based flow cytometry; assay type: functional, cell-based; settings: dose 1.25-10 nM
MV4-11 [14] = test: Induction of apoptosis in human MV4-11 cells assessed as downregulation of Mcl-1 level at 15 nM measured upto 12 hrs by Western blot analysis; assay type: functional, cell-based; settings: time hrs <=12
MV4-11 [15] = test: Induction of apoptosis in human MV4-11 cells assessed as upregulation of cleaved caspase-3 level at 15 nM by Western blot analysis; assay type: functional, cell-based; settings: time 0-12 hrs, TDE = time-dependent effect
[16] = system: Receptor-type tyrosine-protein kinase FLT3 (Homo sapiens), P36888 [UNDEFINED MUTATION]; test: Induction of FLT3-ITD degradation in human MOLM-13 cells after 24 hrs by Western blot analysis; assay type: cell-based
[17] = system: Receptor-type tyrosine-protein kinase FLT3 (Homo sapiens), P36888 [UNDEFINED MUTATION]; test: Induction of FLT3-ITD degradation in human MV4-11 cells after 24 hrs by Western blot analysis; assay type: cell-based
[18] = target: Mast/stem cell growth factor receptor Kit (Homo sapiens) (UniProt P10721); test: Induction of KIT degradation in human MOLM-13 cells at 0 to 25 nM after 24 hrs by Western blot analysis; assay type: cell-based; settings: dose 0-25 nM
[19] = target: Mast/stem cell growth factor receptor Kit (Homo sapiens) (UniProt P10721); test: Induction of KIT degradation in human MV4-11 cells at 0 to 25 nM after 24 hrs by Western blot analysis; assay type: cell-based; settings: dose 0-25 nM
[20] = target: Receptor-type tyrosine-protein kinase FLT3 (Homo sapiens) (UniProt P36888); test: Inhibition of FLT3 in human MV4-11 cells assessed as reduction in STAT5 phosphorylation at 15 nM by Western blot analysis; assay type: cell-based; settings: time 0-12 hrs, TDE = time-dependent effect
[21] = target: Receptor-type tyrosine-protein kinase FLT3 (Homo sapiens) (UniProt P36888); test: Inhibition of FLT3 in human MV4-11 cells assessed as reduction in AKT phosphorylation at 15 nM by Western blot analysis; assay type: cell-based; settings: time 0-12 hrs, TDE = time-dependent effect
[22] = target: Receptor-type tyrosine-protein kinase FLT3 (Homo sapiens) (UniProt P36888); test: Inhibition of FLT3 in human MOLM-13 cells assessed as reduction in ERK phosphorylation at 15 nM by Western blot analysis; assay type: cell-based; settings: time 0-12 hrs, TDE = time-dependent effect
[23] = target: Receptor-type tyrosine-protein kinase FLT3 (Homo sapiens) (UniProt P36888); test: Inhibition of FLT3 in human MV4-11 cells assessed as reduction in ERK phosphorylation at 15 nM by Western blot analysis; assay type: cell-based; settings: time 0-12 hrs, TDE = time-dependent effect
[24] = target: Mast/stem cell growth factor receptor Kit (Homo sapiens) (UniProt P10721); test: Inhibition of KIT in human MOLM-13 cells assessed as reduction in STAT3 phosphorylation at 5 to 25 nM after 24 hrs by Western blot analysis; assay type: cell-based; settings: dose 5-25 nM
[25] = target: Mast/stem cell growth factor receptor Kit (Homo sapiens) (UniProt P10721); test: Inhibition of KIT in human MV4-11 cells assessed as reduction in STAT3 phosphorylation at 5 to 25 nM after 24 hrs by Western blot analysis; assay type: cell-based; settings: dose 5-25 nM
[26] = target: Mast/stem cell growth factor receptor Kit (Homo sapiens) (UniProt P10721); test: Inhibition of KIT in human MOLM-13 cells assessed as reduction in PI3K phosphorylation at 5 to 25 nM after 24 hrs by Western blot analysis; assay type: cell-based; settings: dose 5-25 nM
[27] = system: Receptor-type tyrosine-protein kinase FLT3 (Homo sapiens), P36888 [UNDEFINED MUTATION]; test: Induction of FLT3-ITD degradation in human MV4-11 cells at 20 nM pretreated with MG132 for 2 hrs followed compound addition for 6 hrs by Western blot analysis; assay type: cell-based
MOLM-13 [28] = test: Reduction in intracellular ROS level in human MOLM-13 cells measured after 12 hrs by DCFH-DA probe based flow cytometry; assay type: functional, cell-based; settings: dose 25-200 nM
MV4-11 [29] = test: Reduction in intracellular ROS level in human MV4-11 cells measured after 12 hrs by DCFH-DA probe based flow cytometry; assay type: functional, cell-based; settings: dose 25-200 nM
[30] = Toxicity in NOD/SCID mouse xenografted with human MV4-11 cells assessed as effect on body weight at 3 mg/kg/day, iv administered for 12 hrs; assay type: organism-based; settings: in vivo
[31] = system: Receptor-type tyrosine-protein kinase FLT3 (Homo sapiens), P36888 [UNDEFINED MUTATION]; settings: dose 1000.0 nM
Description: Inhibition of FLT3 ITD mutant (unknown origin) at 1000 nM relative to control

[32] = system: Receptor-type tyrosine-protein kinase FLT3 (Homo sapiens), P36888 [D835Y]; settings: dose 1000.0 nM
Description: Inhibition of FLT3 D835Y mutant (unknown origin) at 1000 nM relative to control

[33] = target: Platelet-derived growth factor receptor alpha (Homo sapiens) (UniProt P16234); settings: dose 1000.0 nM
Description: Inhibition of PDGFRalpha (unknown origin) at 1000 nM relative to control

[34] = target: Fibroblast growth factor receptor 2 (Homo sapiens) (UniProt P21802); settings: dose 1000.0 nM
Description: Inhibition of FGFR2 (unknown origin) at 1000 nM relative to control

[35] = target: Tyrosine-protein kinase Lck (Homo sapiens) (UniProt P06239); settings: dose 1000.0 nM
Description: Inhibition of LCK (unknown origin) at 1000 nM relative to control

[36] = target: Tyrosine-protein kinase ABL1 (Homo sapiens) (UniProt P00519); settings: dose 1000.0 nM
Description: Inhibition of ABL (unknown origin) at 1000 nM relative to control

[37] = target: Receptor tyrosine-protein kinase erbB-4 (Homo sapiens) (UniProt Q15303); settings: dose 1000.0 nM
Description: Inhibition of HER4 (unknown origin) at 1000 nM relative to control

[38] = target: Mitogen-activated protein kinase 14 (Homo sapiens) (UniProt Q16539); settings: dose 1000.0 nM
Description: Inhibition of p38alpha (unknown origin) at 1000 nM relative to control

Chain of Mast/stem cell growth factor receptor Kit (Homo sapiens) (P10721 whole entry): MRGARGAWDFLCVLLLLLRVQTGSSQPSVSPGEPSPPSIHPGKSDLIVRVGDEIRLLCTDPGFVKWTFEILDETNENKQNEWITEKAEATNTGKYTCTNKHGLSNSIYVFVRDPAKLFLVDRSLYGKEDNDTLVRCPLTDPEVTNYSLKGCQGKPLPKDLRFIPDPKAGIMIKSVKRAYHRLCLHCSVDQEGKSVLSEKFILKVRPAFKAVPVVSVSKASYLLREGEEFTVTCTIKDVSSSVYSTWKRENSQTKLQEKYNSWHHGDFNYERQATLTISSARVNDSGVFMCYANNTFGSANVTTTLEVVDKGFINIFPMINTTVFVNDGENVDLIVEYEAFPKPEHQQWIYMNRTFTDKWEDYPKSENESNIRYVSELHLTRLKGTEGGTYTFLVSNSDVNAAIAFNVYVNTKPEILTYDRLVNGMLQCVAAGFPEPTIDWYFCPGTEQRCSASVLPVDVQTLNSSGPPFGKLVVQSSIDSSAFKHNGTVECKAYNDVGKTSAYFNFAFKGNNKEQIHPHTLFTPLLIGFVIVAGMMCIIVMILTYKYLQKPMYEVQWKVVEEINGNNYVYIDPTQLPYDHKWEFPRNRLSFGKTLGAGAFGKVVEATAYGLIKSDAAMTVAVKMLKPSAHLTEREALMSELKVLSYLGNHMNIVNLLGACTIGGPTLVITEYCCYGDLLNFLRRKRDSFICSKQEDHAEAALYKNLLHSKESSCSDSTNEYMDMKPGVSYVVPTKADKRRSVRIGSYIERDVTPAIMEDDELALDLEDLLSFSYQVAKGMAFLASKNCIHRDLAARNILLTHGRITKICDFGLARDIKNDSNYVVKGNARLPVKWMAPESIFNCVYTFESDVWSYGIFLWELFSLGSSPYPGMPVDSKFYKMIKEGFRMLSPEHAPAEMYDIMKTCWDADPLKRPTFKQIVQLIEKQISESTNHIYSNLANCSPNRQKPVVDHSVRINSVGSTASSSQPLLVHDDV
Chain of Mitogen-activated protein kinase 1 (Homo sapiens) (P28482 whole entry): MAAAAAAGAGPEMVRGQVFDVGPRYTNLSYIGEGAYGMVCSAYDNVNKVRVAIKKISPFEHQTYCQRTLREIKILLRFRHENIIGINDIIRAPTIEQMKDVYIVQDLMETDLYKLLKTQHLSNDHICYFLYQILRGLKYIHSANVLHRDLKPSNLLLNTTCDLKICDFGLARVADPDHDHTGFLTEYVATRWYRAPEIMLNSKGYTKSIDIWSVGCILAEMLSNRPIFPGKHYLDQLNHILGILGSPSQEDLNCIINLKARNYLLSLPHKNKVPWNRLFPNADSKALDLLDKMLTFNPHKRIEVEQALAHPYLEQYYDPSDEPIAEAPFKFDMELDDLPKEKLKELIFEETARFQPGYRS
Chain of Tyrosine-protein kinase Lck (Homo sapiens) (P06239 2-509 limits assumed): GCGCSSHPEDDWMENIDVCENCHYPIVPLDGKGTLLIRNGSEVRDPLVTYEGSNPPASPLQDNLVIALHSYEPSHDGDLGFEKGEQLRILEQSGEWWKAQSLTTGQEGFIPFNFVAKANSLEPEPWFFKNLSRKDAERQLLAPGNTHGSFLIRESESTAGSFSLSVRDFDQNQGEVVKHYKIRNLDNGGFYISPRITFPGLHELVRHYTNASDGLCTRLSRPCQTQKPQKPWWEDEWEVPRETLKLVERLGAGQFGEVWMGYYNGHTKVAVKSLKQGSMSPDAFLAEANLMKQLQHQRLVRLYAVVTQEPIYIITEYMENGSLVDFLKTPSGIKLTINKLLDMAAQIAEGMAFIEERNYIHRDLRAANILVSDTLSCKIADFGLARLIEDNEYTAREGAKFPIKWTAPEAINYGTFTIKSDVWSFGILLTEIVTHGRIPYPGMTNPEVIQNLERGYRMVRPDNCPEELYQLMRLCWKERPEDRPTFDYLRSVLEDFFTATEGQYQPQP
Chain of Serine/threonine-protein kinase Chk1 (Homo sapiens) (O14757 whole entry): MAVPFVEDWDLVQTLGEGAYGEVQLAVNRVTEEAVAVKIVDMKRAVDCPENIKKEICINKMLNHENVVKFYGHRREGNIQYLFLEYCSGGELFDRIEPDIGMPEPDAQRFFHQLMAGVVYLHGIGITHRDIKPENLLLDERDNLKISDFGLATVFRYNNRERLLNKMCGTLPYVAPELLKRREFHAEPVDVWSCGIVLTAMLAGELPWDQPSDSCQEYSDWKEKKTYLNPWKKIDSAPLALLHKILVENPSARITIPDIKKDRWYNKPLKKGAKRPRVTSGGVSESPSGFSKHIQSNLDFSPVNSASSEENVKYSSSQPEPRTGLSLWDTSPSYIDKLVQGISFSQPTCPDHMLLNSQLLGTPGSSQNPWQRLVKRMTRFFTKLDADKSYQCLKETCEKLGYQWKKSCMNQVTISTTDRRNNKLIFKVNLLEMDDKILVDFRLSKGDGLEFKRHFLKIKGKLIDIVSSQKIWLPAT
Chain of Serine/threonine-protein kinase MARK1 (Homo sapiens) (Q9P0L2 whole entry, looked up): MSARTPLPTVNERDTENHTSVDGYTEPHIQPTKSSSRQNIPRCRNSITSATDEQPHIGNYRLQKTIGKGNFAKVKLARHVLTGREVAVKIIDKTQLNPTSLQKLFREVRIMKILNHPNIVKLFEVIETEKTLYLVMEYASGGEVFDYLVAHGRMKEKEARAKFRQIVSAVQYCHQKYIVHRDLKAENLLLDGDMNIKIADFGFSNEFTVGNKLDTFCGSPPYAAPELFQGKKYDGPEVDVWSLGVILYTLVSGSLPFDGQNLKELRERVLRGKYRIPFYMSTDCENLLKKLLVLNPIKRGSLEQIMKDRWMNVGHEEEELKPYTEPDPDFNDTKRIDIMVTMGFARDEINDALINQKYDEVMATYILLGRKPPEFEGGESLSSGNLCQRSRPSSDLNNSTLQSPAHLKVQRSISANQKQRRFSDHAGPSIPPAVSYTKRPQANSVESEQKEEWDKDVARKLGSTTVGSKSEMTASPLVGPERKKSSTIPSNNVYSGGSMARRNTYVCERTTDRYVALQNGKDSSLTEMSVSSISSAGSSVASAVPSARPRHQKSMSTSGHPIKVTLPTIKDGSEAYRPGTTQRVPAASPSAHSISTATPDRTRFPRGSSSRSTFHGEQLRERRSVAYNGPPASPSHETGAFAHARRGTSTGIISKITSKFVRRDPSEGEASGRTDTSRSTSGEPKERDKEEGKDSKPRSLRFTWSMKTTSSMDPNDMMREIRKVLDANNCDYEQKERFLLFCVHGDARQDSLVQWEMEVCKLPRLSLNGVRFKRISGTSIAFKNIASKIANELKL
Chain of ALK tyrosine kinase receptor (Homo sapiens) (Q9UM73 19-1620 limits assumed): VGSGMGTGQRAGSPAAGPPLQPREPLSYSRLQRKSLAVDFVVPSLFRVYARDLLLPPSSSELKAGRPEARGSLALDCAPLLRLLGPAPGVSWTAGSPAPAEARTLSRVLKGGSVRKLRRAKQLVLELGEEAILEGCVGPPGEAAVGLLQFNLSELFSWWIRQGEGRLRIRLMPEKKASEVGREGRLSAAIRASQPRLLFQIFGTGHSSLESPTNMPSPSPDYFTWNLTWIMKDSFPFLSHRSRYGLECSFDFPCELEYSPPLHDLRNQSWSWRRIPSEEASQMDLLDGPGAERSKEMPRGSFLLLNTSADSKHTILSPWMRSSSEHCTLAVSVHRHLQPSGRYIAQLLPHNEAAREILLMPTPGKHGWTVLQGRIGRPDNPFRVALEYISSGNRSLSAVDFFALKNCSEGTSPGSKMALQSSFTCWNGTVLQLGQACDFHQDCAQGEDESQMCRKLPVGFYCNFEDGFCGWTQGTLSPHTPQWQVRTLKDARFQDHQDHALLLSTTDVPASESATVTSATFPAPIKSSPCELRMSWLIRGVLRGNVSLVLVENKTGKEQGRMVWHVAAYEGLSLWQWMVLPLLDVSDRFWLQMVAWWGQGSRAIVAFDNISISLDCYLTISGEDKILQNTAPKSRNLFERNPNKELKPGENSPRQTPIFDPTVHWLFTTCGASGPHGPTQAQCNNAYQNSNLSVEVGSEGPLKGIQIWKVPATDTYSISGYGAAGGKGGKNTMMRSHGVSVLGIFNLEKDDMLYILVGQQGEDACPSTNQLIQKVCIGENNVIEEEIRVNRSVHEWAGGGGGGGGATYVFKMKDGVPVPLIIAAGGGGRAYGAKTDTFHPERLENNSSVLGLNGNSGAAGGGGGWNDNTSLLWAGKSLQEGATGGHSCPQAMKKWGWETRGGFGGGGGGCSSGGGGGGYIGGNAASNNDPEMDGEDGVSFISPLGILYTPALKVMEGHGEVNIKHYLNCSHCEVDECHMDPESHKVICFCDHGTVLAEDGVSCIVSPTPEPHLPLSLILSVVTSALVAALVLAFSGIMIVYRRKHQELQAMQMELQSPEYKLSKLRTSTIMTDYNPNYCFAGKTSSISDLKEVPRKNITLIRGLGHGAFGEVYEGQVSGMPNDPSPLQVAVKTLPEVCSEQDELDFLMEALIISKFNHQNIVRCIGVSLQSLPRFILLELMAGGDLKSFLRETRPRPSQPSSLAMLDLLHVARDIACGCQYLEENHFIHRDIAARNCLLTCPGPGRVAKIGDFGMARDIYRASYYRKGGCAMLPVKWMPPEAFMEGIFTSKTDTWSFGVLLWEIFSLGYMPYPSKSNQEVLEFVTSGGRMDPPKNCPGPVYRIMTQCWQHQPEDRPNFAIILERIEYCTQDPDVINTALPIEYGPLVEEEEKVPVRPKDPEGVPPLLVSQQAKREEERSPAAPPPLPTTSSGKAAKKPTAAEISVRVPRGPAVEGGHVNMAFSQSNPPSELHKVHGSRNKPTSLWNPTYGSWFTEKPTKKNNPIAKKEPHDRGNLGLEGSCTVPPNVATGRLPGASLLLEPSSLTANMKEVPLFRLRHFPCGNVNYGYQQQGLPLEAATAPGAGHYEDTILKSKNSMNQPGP
Chain of Casein kinase I isoform alpha-like (Homo sapiens) (Q8N752 whole entry, canonical isoform): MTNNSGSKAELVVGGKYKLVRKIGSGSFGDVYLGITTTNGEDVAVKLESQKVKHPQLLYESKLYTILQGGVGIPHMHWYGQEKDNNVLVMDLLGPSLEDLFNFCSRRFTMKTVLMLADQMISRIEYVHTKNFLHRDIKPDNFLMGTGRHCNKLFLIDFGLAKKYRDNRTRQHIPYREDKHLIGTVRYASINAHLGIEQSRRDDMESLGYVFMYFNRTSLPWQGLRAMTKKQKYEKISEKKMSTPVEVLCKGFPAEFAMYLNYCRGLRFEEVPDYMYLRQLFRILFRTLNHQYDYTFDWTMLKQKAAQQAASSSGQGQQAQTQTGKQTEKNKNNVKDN

inhibition [1]: 11% | inhibition [2]: 26% | inhibition [3]: 17% | inhibition [4]: 25% | inhibition [5]: 54% | inhibition [6]: -8% | inhibition [7]: 38% | inhibition [8]: 0% | inhibition [9]: 4% | inhibition [10]: 0% | inhibition [11]: 1% | Activity [16]: Dose-Dependent Effect | Activity [17]: Dose-Dependent Effect | Activity [18]: Active | Activity [19]: Active | inhibition [20]: Tde | inhibition [21]: Tde | inhibition [22]: Tde | inhibition [23]: Tde | inhibition [24]: Active | inhibition [25]: Active | inhibition [26]: Active | Activity [27]: inactive | inhibition [31]: 98% | inhibition [32]: 95% | inhibition [33]: 82% | inhibition [34]: 34% | inhibition [35]: 16% | inhibition [36]: 7% | inhibition [37]: 14% | inhibition [38]: 12%
SMILES: Nc1c(-c2nc3cc(N4CCN(C(=O)CCCCCNc5cccc6c5C(=O)N(C5CCC(=O)NC5=O)C6=O)CC4)ccc3[nH]2)c(=O)[nH]c2cccc(F)c12 (stereo not drawn)
Activity (MOLM-13 [12]): Dose-Dependent Effect | Activity (MV4-11 [13]): Dose-Dependent Effect | Activity (MV4-11 [14]): Active | Activity (MV4-11 [15]): Tde | Activity (MOLM-13 [28]): Dose-Dependent Effect | Activity (MV4-11 [29]): Dose-Dependent Effect | Activity [30]: Non-Toxic
